# What was measured:
# [1] = Ferric reducing power (FRAP) assay; assay type: biochemical; details: for reducing antioxidant power, fold higher than that of the standard antioxidant Trolox: relative to Trolox; for reducing antioxidant power (FRAP), result in words: compared with daphnetin or the parent compound
# Protocol: (§1) The antioxidant activity is influenced by many factors, which cannot be fully described with a single antioxidant assay. Thus, in this study, antioxidant activities in vitro were evaluated using the free radical scavenging effect on 2,2′-diphenyl-1-picrylhydrazyl (DPPH), 2,2′-azinobis-(3-ethylbenzthiazoline-6-sulfonate) cation (ABTS^+). and the ferric reducing power (FRAP) assay, respectively, according to the literature with a slight modification.
# The FRAP (ferric reducing antioxidant power) reagent was prepared with acetate buffer (300 mmol/L, pH 3.6), 2,4,6-tripyridyl-s-triazine (TPTZ) (10 mmol/L in HCl, 40 mmol/L) and FeCl3 (20 mmol/L). The proportions were 10:1:1 (v:v:v), respectively. Each sample solution was added to the FRAP reagent (1:30, v:v) and incubated at 37 °C for 5 min. The absorbance was determined at 593 nm using a spectrophotometer (Hitachi U-2800 Spectrophotometer, Tokyo, Japan). The Trolox standard solution (concentration range: 0–0.4 mmol/L) in ethanol was analyzed under the same conditions as those used for the calibration. The values of the reducing power were determined using a calibration curve of Trolox and expressed as the Trolox equivalent ([…], mmolTrolox/mmol sample).
# [2] = ABTS+ radical scavenging assay; assay type: biochemical; details: 3 min at room temperature, absorbance 734 nm, triplicate
# Protocol: as §1
# The mixture was incubated in the dark at room temperature for 15–16 h before use. […] Each sample solution (0.1 mL) was added to 3.9 mL ABTS^+ solution, and the absorbance was measured at room temperature after 3 min. The Trolox standard solution (concentration range: 0–0.4 mmol/L) in ethanol was analyzed under the same conditions as those used for the calibration. […]
# [3] = DPPH radical scavenging assay; assay type: biochemical; details: for EC50: DPPH radical scavenging, 30 min at room temperature, absorbance 517 nm, triplicate; for DPPH antioxidant activity compared with DAP 1, result in words: DPPH assay
# Protocol: as §1
# Each sample in an ethanol solution (0.1 mL) was added to 3.9 mL DPPH ethanol solution (0.1 mmol/L). The solution was vortexed for 10 s and incubated at room temperature for 30 min. […] The Trolox standard solution (concentration range: 0–0.4 mmol/L) in ethanol was analyzed under the same conditions as those used for calibration. […]
# [4] = tested on: mononuclear cells of umbilical blood; parameters: method as in PMID 15113635; details: cited from earlier work
# [5] = Metabolic stability assay in vitro (UGT and COMT incubation system, S9 fraction); assay type: in vitro ADME, human; details: for half-life: UGT and COMT incubation system, pooled human S9, 2 mM UDPGA and 0.2 mM SAM, 37 °C, pH 7.4, read-out: metabolic elimination t1/2
# From the text: The simultaneous improvement of utility as a drug and pharmacological activity is still a challenge for the structural optimization of lead compounds. From the view of the chemical structure, the catechol group is not only the pharmacophore of the coumarins but also the susceptible group for the attack of phase II metabolic enzymes. As phenolic hydroxyls, catechol coumarins primarily undergo conjugative reactions mediated by phase II metabolizing enzymes, including uridine-5-diphosphate glucuronosyl transferase (UGT) and catechol-O-methyltransferase (COMT). […] In summary, 4-carbethoxyl DAP 9 holds strong potential to be developed as an antioxidant agent with excellent antioxidant activity and good pharmacokinetic properties.
# Metabolic stability assay in vitro
# To determine the effects of a combination of glucuronidation and methylation, daphnetin and compound 9 were
# incubated with S9 fraction in the presence of two cofactors (2 mM UDPGA and 0.2 mM SAM). The incubation mixture
# contained pooled human S9 fraction (0.02 mg mL-1 protein), 5 mM MgCl2, 2 mM UDPGA, 0.2 mM SAM and 5 mM
# daphnetin derivatives (dissolved in DMSO, final concentration 1%) in 200 mL of 50 mM Tris buffer (pH 7.4), as
# described in the reported manuscript. Controls were incubated in the absence of UDPGA and SAM. After incubation at
# 37 °C for 0 to 6 0 min, the reactions were terminated by adding […] of cold acetonitrile. The samples were
# centrifuged at 20 000 g for 20 min. The supernatants (200 mL) were subjected to assay for the time - dependent
# esculetins depletion using HPLC.
# Daphnetin and compound 9 were analyzed by a ultra - fast l iquid chromatography spectrometry system (Shimadzu,
# Kyoto, Japan), equipped with two LC - 20AD pumps, a DGU - 20A3 vacuum degasser, a SIL - 20ACHT auto - sampler, a
# CTO - 20AC column oven, an SPD - M 20A diode - array detector (DAD), a CBM - 20A communicati ons bus module, a […]
# the equation: t1/2 = ln2/-k, where k represents the terminal elimination rate constant and is calculated as the negative […]
# [6] = tested on: human single cell DNA; parameters: method as in PMID 12561251; details: cited from earlier work
EC50 [2] [µM],EC50 [3] [µM],Molecule,"reducing antioxidant power (FRAP), result in words [1]",further results
198 ± 28.2,55.6 ± 0.78,"O=c1cc(-c2ccccc2)c2ccc(O)c(O)c2o1 [Compound 3, 7,8-Dihydroxy-4-phenyl-2H-chromen-2-one]",decreased activities of daphnetin but were still superior to Trolox,"DPPH antioxidant activity compared with DAP 1, result in words [3]: lower than that of DAP 1"
75.2 ± 1.58,45.7 ± 1.26,"O=c1cc(C(F)(F)F)c2ccc(O)c(O)c2o1 [Compound 5, 7,8-Dihydroxy-4-trifluoromethyl-2H-chromen-2-one]",three-fold increase in reducing antioxidant power,–
4560 ± 50.1,698 ± 5.22,"CC(=O)Oc1ccc2ccc(=O)oc2c1OC(C)=O [Compound 12, 2-oxo-2H-Chromene-7,8-diyl diacetate]",–,–
95.8 ± 4.18,47 ± 2.05,N#Cc1cc2ccc(O)c(O)c2oc1=O [Compound 14],–,"reducing antioxidant power, fold higher than that of the standard antioxidant Trolox [1]: 3 fold"
80.52 ± 0.61,50.6 ± 0.61,CC(=O)c1cc2ccc(O)c(O)c2oc1=O [Compound 15],–,"reducing antioxidant power, fold higher than that of the standard antioxidant Trolox [1]: 3 fold"
138.9 ± 0.14,44 ± 0.89,CCOC(=O)c1cc2ccc(O)c(O)c2oc1=O [Compound 17],this situation did not change,–
91.2 ± 2.29,55.6 ± 1.48,C#CCNC(=O)c1cc2ccc(O)c(O)c2oc1=O [Compound 18],this situation did not change,–
122 ± 4.41,66.8 ± 1.38,"NC(=O)c1c(-c2nc3ccccc3s2)c(=O)oc2c(O)c(O)ccc12 [Compound 22, 3-(benzo[d]thiazol-2-yl)-7,8-dihydroxy-2-oxo-2H-chromene-4-carboxamide]",lower antioxidant activity compared with that of compound 19,–

# The remaining lines, values behind:
Molecule,EC50 [2] [µM],EC50 [3] [µM],"reducing antioxidant power (FRAP), result in words [1]",further results
"O=c1ccc2ccc(O)c(O)c2o1 [Compound 1, 7,8-dihydroxycoumarin, reference compound]",159 ± 4.63,46.2 ± 1.45,–,"reducing antioxidant power, fold higher than that of the standard antioxidant Trolox [1]: 2.5 fold; protection of mononuclear cells of umbilical blood from oxidative attack, compared with resveratrol [4]: stronger activities in protecting mononuclear cells of umbilical blood from oxidative attack than resveratrol; half-life [5]: 20.3 min"
"Cc1cc(=O)oc2c(O)c(O)ccc12 [Compound 2, 7,8-Dihydroxy-4-methyl-2H-chromen-2-one]",224.5 ± 1.94,85.6 ± 2.13,decreased activities of daphnetin but were still superior to Trolox,"protection of human single cell DNA from oxidative attack, compared with curcumin and resveratrol [6]: more effective in protection of human single cell DNA from oxidative attack than curcumin and resveratrol; protection of mononuclear cells of umbilical blood from oxidative attack, compared with resveratrol [4]: stronger activities in protecting mononuclear cells of umbilical blood from oxidative attack than resveratrol"
"CC(C)(C)c1cc(=O)oc2c(O)c(O)ccc12 [Compound 4, 7,8-Dihydroxy-4-tert-butyl-2H-chromen-2-one]",234.7 ± 2.03,65.5 ± 2.84,decreased activities of daphnetin but were still superior to Trolox,–
"[N-]=[N+]=NCc1cc(=O)oc2c(O)c(O)ccc12 [Compound 8, 7,8-Dihydroxy-4-azidemethyl-2H-chromen-2-one]",238 ± 4.47,62.2 ± 3.73,markedly decreased antioxidant activity,–
"O=C(O)Cc1cc(=O)oc2c(O)c(O)ccc12 [Compound 9, 2-(7,8-Dihydroxy-2-oxo-2H-chromen-4-yl)acetic acid]",–,31.4 ± 0.68,three-fold increase in reducing antioxidant power,EC50 ([2]; listed as 4-CH2COOH DAP (9)): 72.3 ± 2.7 µM; half-life [5]: 96.5 min; t1/2 of compound 9 relative to that of compound 1 ([5]; UGT and COMT incubation systems in vitro): five-fold longer
"COc1cc2ccc(=O)oc2c(O)c1O [Compound 11, Fraxetin, reference compound]",173 ± 4.83,45.6 ± 1.48,–,–
O=c1oc2c(O)c(O)ccc2cc1-c1ccccc1 [Compound 13],108 ± 1.42,43.7 ± 2.08,–,"DPPH antioxidant activity compared with DAP 1, result in words [3]: more effective"
O=C(O)c1cc2ccc(O)c(O)c2oc1=O [Compound 16],146 ± 5.77,37.7 ± 1.16,little effect on its antioxidant activity,–
O=c1oc2c(O)c(O)ccc2cc1-c1nc2ccccc2s1 [Compound 19],86.6 ± 3.17,71.3 ± 2.4,slightly reduced antioxidant activity,–
"O=C(O)c1c(-c2nc3ccccc3s2)c(=O)oc2c(O)c(O)ccc12 [Compound 21, 3-(Benzo[d]thiazol-2-yl)-7,8-dihydroxy-2-oxo-2H-chromene-4-carboxylic acid]",108 ± 6.35,130 ± 3.54,significant decrease in antioxidant activity,–
"O=c1oc2c(O)c(O)ccc2c(-c2nnn[nH]2)c1-c1nc2ccccc2s1 [Compound 23, 3-(Benzo[d]thiazol-2-yl)-7,8-dihydroxy-4-(1H-tetrazol-5-yl)-2H-chromen-2-one]",121.7 ± 0.22,168 ± 11.6,lower antioxidant activity compared with that of compound 19,–
"Cc1c(C(F)(F)F)c2ccc(O)c(O)c2oc1=O [Compound 24, 7,8-Dihydroxy-3-methyl-4-(trifluoromethyl)-2H-chromen-2-one]",107 ± 6.23,53.8 ± 2.25,–,–
"Cc1c(C)c2c(c(C)c1O)CCC(C)(C(=O)O)O2 (stereo not drawn) [Trolox, 6-hydroxy-2,5,7,8-tetramethylchroman-2-carboxylic acid, reference compound]",241 ± 2.52,53.2 ± 2.02,–,–
"Methyl 2-(7,8-dihydroxy-2-oxo-2H-chromen-4-yl)acetic acid [Compound 10]",222.7 ± 1.84,50.2 ± 1.12,significant decrease in antioxidant activity,–

# Source: paper PMC6222747, “Synthesis and Structure-Activity Relationship of Daphnetin Derivatives as Potent Antioxidant Agents” (Molecules : A Journal of Synthetic Chemistry and Natural …, 2018)
